One assay relates to mice. Format: in vivo. Conditions: SDDA Dose 0.003 mg/kg, s.c., retest after 24 hours. The protocol:
This utility can also be ascertained by determining the ability of these compounds to restore cholinergically deficient memory in the Dark Avoidance Assay. In this assay mice are tested for their ability to remember an unpleasant stimulus for a period of 24 hours. A mouse is placed in a chamber that contains a dark compartment; a strong incandescent light drives it to the dark compartment, where an electric shock is administered through metal plates on the floor. The animal is removed from the testing apparatus and tested again, 24 hours later, for the ability to remember the electric shock.
If scopolamine, an anticholinergic that is known to cause memory impairment, is administered before an animal's initial exposure to the test chamber, the animal re-enters the dark compartment shortly after being placed in the test chamber 24 hours later. This effect of scopolamine is blocked by an active test compounds, resulting in a greater interval before reentry into the dark compartment.
The test results are expressed as the percent of a group of animals in which the effect of scopolamine is blocked, as manifested by an increased interval between being placed in the test chamber and reentering the dark compartment. Results of Dark Avoidance Assay for some of the compounds of this invention are presented in Table II along with a result for a reference compounds.

A further assay concerns the target acetylcholinesterase (Homo sapiens, UniProt P22303). Nature of the assay: Acetylcholinesterase Inhibition Assay (photometric method of Ellman et al.). The format is biochemical. A general note: DTNB colorimetry detects thiols as they appear.

The structures appear in SMILES notation. pIC50: −log10 of the molar value. Where a name gives a salt, the structure may show the parent alone.

acetylcholinesterase, sequence (P22303 32-614): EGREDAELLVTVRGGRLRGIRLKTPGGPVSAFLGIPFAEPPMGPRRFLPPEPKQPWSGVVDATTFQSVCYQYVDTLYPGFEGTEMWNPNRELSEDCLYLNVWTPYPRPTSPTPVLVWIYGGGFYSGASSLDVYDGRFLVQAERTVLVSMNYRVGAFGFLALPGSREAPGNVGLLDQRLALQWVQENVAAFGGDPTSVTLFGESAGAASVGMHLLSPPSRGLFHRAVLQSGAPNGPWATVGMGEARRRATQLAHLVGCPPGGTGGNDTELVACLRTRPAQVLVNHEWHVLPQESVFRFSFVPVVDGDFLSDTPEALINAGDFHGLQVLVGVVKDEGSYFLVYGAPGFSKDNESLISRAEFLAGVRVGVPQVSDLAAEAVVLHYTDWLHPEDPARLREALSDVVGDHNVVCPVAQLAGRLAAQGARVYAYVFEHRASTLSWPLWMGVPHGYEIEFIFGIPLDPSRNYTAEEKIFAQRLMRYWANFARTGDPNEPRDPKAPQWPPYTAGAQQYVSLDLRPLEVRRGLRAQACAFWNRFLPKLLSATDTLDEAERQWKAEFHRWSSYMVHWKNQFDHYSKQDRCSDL

Turning to `CN1CC[C@@]23C=C[C@H](O)C[C@@H]2Oc2c(OC(=O)N4CCc5ccccc5C4)ccc(c23)C1` [Example 2, (6-O-Demethyl)-6-O-(1,2,3,4-tetrahydroisoquinolin-2-yl)carbonyl]-galanthamine hydrochloride], the “Percent of Animals with Scopolamine Induced Memory Deficit Reversal” value in the assay with mice was 27% of Animals. This compound gave a negative logarithm of the IC50 (pIC50) on acetylcholinesterase of 9.05.

By pIC50 is commonly meant the IC50 on a negative log10 scale, so that one unit is a factor of ten. Higher therefore signals a low IC50.

(Values after US6323195A, “Galanthamine derivatives as acetylcholinesterase inhibitors” (priority 1993, dated 2001).)
